Measured values from publication PMC6891286, “Towards the Development of an In vivo Chemical Probe for Cyclin G Associated Kinase (GAK)” (Molecules, 2019).
Where two headings read alike, the source gives them in different places.

Assays:
AAK1 = AAK1 (Homo sapiens, UniProt Q2M2I8); assay: NAK family TR-FRET binding displacement assay; conditions: NAK family FRET screening
BMP2K = BMP2K (Homo sapiens, UniProt Q9NSY1); assay: NAK family TR-FRET binding displacement assay
GAK [1] = target: T1, GAK (Homo sapiens, UniProt O14976); assay: TR-FRET ligand-binding displacement assay
T1 sequence (O14976 1-1311): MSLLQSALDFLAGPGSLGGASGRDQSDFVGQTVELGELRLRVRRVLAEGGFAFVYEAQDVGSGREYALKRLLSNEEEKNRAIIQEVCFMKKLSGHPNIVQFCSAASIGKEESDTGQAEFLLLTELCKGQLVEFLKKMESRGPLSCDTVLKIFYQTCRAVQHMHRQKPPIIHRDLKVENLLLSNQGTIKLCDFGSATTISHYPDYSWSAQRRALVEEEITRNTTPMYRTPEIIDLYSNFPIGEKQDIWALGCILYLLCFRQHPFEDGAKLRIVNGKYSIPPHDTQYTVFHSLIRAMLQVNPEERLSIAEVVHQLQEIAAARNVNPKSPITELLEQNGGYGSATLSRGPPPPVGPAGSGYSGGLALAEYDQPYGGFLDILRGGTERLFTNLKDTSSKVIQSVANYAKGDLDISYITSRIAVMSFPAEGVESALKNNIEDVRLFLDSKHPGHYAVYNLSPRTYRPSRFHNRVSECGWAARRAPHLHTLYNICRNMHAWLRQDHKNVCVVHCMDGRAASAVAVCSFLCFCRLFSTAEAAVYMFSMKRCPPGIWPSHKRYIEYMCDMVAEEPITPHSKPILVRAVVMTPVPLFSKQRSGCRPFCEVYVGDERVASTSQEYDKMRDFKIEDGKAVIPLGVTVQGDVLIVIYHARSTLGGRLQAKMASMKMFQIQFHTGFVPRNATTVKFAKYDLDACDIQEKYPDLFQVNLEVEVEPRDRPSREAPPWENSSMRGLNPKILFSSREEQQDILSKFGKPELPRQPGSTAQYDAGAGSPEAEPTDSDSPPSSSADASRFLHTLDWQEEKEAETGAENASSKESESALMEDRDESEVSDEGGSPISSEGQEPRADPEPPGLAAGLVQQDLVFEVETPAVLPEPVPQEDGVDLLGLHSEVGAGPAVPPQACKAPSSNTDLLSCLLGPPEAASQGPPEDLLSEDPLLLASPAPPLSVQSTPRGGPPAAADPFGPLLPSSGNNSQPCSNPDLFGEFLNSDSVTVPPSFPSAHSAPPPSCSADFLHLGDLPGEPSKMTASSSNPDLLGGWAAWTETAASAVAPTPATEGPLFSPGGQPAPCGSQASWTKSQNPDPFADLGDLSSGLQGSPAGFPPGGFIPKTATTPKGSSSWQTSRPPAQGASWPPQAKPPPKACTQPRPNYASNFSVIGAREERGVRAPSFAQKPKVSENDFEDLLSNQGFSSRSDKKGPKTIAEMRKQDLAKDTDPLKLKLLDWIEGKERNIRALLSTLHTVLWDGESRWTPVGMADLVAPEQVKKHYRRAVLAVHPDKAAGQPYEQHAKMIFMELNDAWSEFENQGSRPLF

GAK [2] = target: T1, GAK; assay: live cell NanoBRET target engagement assay; format: cell-based; conditions: for IC50: nanoBRET, mean average, n = 2; for IC50 values in cells: live cell NanoBRET assay
[3] = mouse liver microsome metabolic stability; conditions: mouse liver microsomes; for T1/2 Ratio: normalization with respect to internal control (propranolol); for half-life: mouse, T1/2 (min), mouse liver microsomes with NADPH, mean average, n = 2
Description: SGC-GAK-1 (1) was incubated with MLMs in the presence or absence of added NADPH, and the compound was quantified at various time points over an hour.
The metabolic stability of the 4-anilinoquinolines (8–13) were evaluated in MLMs (Table 1). Half-lives for metabolic clearance were normalized to propranolol in each experimental run to control for variations in the MLM preparations.

STK16 = STK16 (Homo sapiens, UniProt O75716); assay: NAK family TR-FRET binding displacement assay; conditions: NAK family FRET screening; read-out: Binding displacement assay STK16 Ki
STK16, sequence (O75716 whole entry): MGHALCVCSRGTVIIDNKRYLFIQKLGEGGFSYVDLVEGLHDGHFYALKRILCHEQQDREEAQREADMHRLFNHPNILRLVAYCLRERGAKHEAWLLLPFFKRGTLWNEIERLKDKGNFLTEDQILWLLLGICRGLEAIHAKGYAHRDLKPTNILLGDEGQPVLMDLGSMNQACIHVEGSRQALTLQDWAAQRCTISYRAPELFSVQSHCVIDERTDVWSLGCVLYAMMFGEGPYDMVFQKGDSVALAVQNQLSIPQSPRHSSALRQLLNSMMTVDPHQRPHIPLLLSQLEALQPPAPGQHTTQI

Kinetic Solubility = format: physicochemical; conditions: pH 7.4, aqueous buffer, kinetic from dmso stock, PBS pH7.4 (100 µM)
[4] = NAK family FRET screening, read-out: Binding displacement assay GAK Ki
[5] = TR-FRET assay, read-out: Biochemical GAK Ki
[6] = read-out: Kinetic Solubility µM
[7] = read-out: Kinetic Solubility µg/mL

BMP2K, sequence (Q9NSY1 whole entry): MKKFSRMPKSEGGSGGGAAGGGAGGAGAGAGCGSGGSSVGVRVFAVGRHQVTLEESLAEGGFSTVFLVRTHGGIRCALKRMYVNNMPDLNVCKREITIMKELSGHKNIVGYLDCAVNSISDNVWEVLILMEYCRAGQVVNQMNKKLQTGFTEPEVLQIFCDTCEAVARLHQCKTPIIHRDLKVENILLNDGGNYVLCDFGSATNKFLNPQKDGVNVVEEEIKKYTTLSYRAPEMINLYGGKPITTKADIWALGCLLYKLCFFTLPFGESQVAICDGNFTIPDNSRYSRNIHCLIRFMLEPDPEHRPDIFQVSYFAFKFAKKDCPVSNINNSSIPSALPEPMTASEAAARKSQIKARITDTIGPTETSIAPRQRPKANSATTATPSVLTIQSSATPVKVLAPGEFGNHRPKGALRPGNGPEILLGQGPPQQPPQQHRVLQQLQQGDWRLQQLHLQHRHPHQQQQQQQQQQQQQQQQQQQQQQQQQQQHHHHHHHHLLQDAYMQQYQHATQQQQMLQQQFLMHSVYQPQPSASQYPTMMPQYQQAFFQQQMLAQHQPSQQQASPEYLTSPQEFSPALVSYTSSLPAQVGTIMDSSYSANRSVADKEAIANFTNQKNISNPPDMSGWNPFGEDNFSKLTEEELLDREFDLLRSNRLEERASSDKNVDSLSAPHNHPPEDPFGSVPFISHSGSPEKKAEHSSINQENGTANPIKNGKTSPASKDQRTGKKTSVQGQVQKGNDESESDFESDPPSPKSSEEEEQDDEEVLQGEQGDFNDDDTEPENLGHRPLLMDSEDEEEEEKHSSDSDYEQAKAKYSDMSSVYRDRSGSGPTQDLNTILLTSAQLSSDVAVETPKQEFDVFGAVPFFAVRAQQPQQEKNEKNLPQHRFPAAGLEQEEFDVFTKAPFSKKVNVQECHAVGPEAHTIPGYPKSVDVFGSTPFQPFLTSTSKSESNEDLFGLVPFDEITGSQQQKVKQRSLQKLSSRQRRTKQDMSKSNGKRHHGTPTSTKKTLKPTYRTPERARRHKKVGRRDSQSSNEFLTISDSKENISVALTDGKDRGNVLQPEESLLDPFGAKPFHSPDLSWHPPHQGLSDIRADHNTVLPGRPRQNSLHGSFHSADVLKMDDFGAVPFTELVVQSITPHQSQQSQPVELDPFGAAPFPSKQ
AAK1, sequence (Q2M2I8 whole entry): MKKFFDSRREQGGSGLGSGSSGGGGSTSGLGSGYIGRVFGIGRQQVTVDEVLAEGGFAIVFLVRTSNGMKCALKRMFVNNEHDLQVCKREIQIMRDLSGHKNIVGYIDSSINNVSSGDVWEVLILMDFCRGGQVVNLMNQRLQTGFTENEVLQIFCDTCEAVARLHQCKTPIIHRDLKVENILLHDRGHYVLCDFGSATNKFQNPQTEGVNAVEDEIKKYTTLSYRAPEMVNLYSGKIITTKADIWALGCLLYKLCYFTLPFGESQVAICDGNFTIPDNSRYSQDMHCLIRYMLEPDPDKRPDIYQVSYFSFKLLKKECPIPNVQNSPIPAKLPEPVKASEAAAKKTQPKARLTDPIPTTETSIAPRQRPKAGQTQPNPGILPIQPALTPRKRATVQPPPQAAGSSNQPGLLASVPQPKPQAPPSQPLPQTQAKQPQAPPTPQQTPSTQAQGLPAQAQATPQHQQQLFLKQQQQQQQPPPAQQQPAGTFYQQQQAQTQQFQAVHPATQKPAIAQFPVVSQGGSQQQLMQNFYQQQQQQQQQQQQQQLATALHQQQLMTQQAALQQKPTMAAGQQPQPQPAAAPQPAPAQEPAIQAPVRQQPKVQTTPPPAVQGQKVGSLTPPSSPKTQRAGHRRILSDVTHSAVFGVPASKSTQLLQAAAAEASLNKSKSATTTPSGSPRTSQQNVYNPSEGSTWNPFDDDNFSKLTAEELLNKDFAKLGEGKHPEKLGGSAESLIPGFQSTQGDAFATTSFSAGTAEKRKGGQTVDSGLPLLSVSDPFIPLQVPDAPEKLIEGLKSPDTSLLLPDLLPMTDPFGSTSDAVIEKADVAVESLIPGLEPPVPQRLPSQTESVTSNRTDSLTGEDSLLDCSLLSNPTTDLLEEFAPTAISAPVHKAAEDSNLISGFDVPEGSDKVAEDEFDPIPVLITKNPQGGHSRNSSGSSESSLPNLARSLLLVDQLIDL

| Ki (AAK1) | Ki (BMP2K) | Ki (GAK [1]; [4]) | IC50 (GAK [2]) | T1/2 Ratio [3] | half-life [3] | Ki (STK16) | Ki (GAK [1]; [5]) | T1/2 ratios fold higher than 9 [3] | IC50 values in cells (GAK [2]) | solubility kinetic (Kinetic Solubility; [6]) | solubility kinetic (Kinetic Solubility; [7]) | SMILES |
| --- | --- | --- | --- | --- | --- | --- | --- | --- | --- | --- | --- | --- |
| 1.3 µM | 2.3 µM | 0.066 µM | > 5 µM | 1.0 | 8.1 min | 26 µM | – | – | – | – | – | Brc1ccc2nccc(Nc3cccc4nc[nH]c34)c2c1 [Compound 27, N-(1H-Benzo[d]imidazol-7-yl)-6-bromoquinolin-4-amine] |
| 8.7 µM | 20 µM | 2.8 µM | > 5 µM | 0.09 | 0.73 min | > 100 µM | – | – | – | – | – | Cn1nnc2c(Nc3ccnc4ccc(Br)cc34)cccc21 [Compound 30, 6-Bromo-N-(1-methyl-1H-benzo[d][1,2,3]triazol-4-yl)quinolin-4-amine] |
| > 100 µM | > 100 µM | – | – | 7.0 | 45.6 min | 19 µM | 0.88 µM | – | – | – | – | Fc1c(F)c(F)c(Nc2ccnc3ccc(C(F)(F)F)cc23)c(F)c1F [Compound 12] |
| 4.1 µM | 6.6 µM | – | > 5 µM | 4.2 | 33.6 min | 9.3 µM | 1.6 µM | ≥ 2 fold | – | – | – | Cn1c(=O)[nH]c2cc(Nc3ccnc4ccc(Br)cc34)ccc21 [Compound 42, 5-[(6-Bromoquinolin-4-yl)amino]-1-methyl-2,3-dihydro-1H-1,3-benzodiazol-2-one] |
| 13 µM | 16 µM | 3.6 µM | > 5 µM | 0.10 | 0.8 min | 28 µM | – | – | – | – | – | Cn1ncc2c(Nc3ccnc4ccc(Br)cc34)cccc21 [Compound 31, 6-Bromo-N-(1-methyl-1H-indazol-4-yl)quinolin-4-amine] |
| 1.9 µM | 11 µM | – | 0.18 µM | 0.16 | 1.7 min | > 100 µM | 0.0019 µM | – | submicromolar | – | – | Brc1ccc2nccc(Nc3cccc4occc34)c2c1 [Compound 19, N-(Benzofuran-4-yl)-6-bromoquinolin-4-amine] |
| 1.9 µM | 22 µM | – | > 5 µM | >25 | > 200 min | 21 µM | 0.36 µM | ≥ 2 fold | – | – | – | O=c1[nH]c2ccc(Nc3ccnc4ccc(Br)cc34)cc2[nH]1 [Compound 39, 5-[(6-Bromoquinolin-4-yl)amino]-2,3-dihydro-1H-1,3-benzodiazol-2-one] |
| – | – | – | > 5 µM | 2.2 | 14.8 min | – | – | – | – | 2 µM | 0.7 µg/mL | Fc1cc2cn[nH]c2cc1Nc1ccnc2ccc(Br)cc12 [Compound 36, 6-Bromo-N-(5-fluoro-1H-indazol-6-yl)quinolin-4-amine] |
| > 100 µM | > 100 µM | – | > 5 µM | 0.16 | 1.7 min | > 100 µM | 0.0052 µM | – | – | – | – | Brc1ccc2nccc(Nc3cccc4c3CCO4)c2c1 [Compound 17, 6-Bromo-N-(2,3-dihydrobenzofuran-4-yl)quinolin-4-amine] |
| 4.6 µM | 7.4 µM | – | 0.76 µM | 0.32 | 2.5 min | 19 µM | 0.014 µM | – | submicromolar | 5.1 µM | 1.7 µg/mL | Brc1ccc2nccc(Nc3cccc4[nH]ncc34)c2c1 [Compound 32, 6-Bromo-N-(1H-indazol-4-yl)quinolin-4-amine] |
| 4.6 µM | 13 µM | – | 2.5 µM | 0.15 | 1.2 min | 11 µM | 0.041 µM | – | – | – | – | Brc1ccc2nccc(Nc3cccc4nonc34)c2c1 [Compound 28, N-(6-Bromoquinolin-4-yl)benzo[c][1,2,5]oxadiazol-4-amine] |
| > 100 µM | > 100 µM | – | > 5 µM | 0.24 | 2 min | > 100 µM | 0.46 µM | – | – | – | – | FC1(F)Oc2cccc(Nc3ccnc4ccc(Br)cc34)c2O1 [Compound 16, 6-Bromo-N-(2,2-difluorobenzo[d][1,3]dioxol-4-yl)quinolin-4-amine] |
| 37 µM | 79 µM | – | > 5 µM | 3.4 | 27.8 min | > 100 µM | 0.11 µM | ≥ 2 fold | – | – | – | O=c1[nH]c2cc(Nc3ccnc4ccc(Br)cc34)ccc2o1 [Compound 41, 5-[(6-Bromoquinolin-4-yl)amino]-2,3-dihydro-1,3-benzoxazol-2-one] |
| 2.4 µM | 4.9 µM | – | > 5 µM | 6.9 | 55.9 min | 8.8 µM | 0.68 µM | ≥ 2 fold | – | – | – | O=c1[nH]c2ccc(Nc3ccnc4ccc(Br)cc34)cc2o1 [Compound 40, 6-[(6-Bromoquinolin-4-yl)amino]-2,3-dihydro-1,3-benzoxazol-2-one] |
| > 100 µM | > 100 µM | – | 3.3 µM | 0.50 | 4.1 min | > 100 µM | 0.023 µM | – | – | – | – | Brc1ccc2nccc(Nc3cccc4sccc34)c2c1 [Compound 26, N-(Benzo[b]thiophen-4-yl)-6-bromoquinolin-4-amine] |
| 1.4 µM | 0.98 µM | – | > 5 µM | 1.0 | 8.1 min | 2.7 µM | 0.062 µM | – | – | – | – | O=C1NCc2ccc(Nc3ccnc4ccc(Br)cc34)cc21 [Compound 38, 6-[(6-Bromoquinolin-4-yl)amino]-2,3-dihydro-1H-isoindol-1-one] |
| 3.3 µM | 6.4 µM | – | > 5 µM | 1.9 | 15.6 min | 8 µM | 1.7 µM | – | – | – | – | O=S1(=O)Cc2ccc(Nc3ccnc4ccc(Br)cc34)cc2C1 [Compound 43, 5-((6-Bromoquinolin-4-yl)amino)-1,3-dihydrobenzo[c]thiophene 2,2-dioxide] |
| 4.6 µM | 16 µM | – | 0.57 µM | 0.08 | 0.9 min | > 100 µM | 0.0043 µM | – | submicromolar | – | – | Brc1ccc2nccc(Nc3cccc4ccoc34)c2c1 [Compound 20, N-(Benzofuran-7-yl)-6-bromoquinolin-4-amine] |
| 3.3 µM | 8.7 µM | – | > 5 µM | 0.12 | 1 min | > 100 µM | 0.74 µM | – | – | – | – | COc1cccc(Nc2ccnc3ccc(Br)cc23)c1OC [Compound 15, 6-Bromo-N-(2,3-dimethoxyphenyl)quinolin-4-amine] |
| 3.5 µM | 11 µM | – | 2.5 µM | 0.10 | 0.82 min | > 100 µM | 0.029 µM | – | – | – | – | Brc1ccc2nccc(Nc3cccc4c3OCC4)c2c1 [Compound 18, 6-Bromo-N-(2,3-dihydrobenzofuran-7-yl)quinolin-4-amine] |
